# Measured values taken from PMC10388354, “Ir(III) Compounds Containing a Terdentate Ligand Are Potent Inhibitors of Proliferation and Effective Antimetastatic Agents in Aggressive Triple-Negative Breast Cancer Cells” (Journal of Medicinal Chemistry, 2023).
# Key:
# Assay type in all cases: cell-based, human
# [1] = system: vimentin in MDA-MB-231 VIM RFP cells; test: Flow cytometric quantification of vimentin (VIM RFP reporter); settings: 72 h
# Experimental: Quantification of vimentin expression after the treatment of MDA-MB-231 VIM RFP cells with tested compounds was determined with flow cytometry. MDA-MB-231 VIM RFP cells were seeded at the density of 1 × 10^4 cells/well and incubated overnight. […] After 72 h of incubation, cells were trypsinized and analyzed on a flow cytometer Cell Stream (Luminex, USA). The data were processed using Cell Stream analysis software or FCS Express 7 (DeNovo Software, CA). The fluorescence coming from the VIM RFP tag is proportional to the expression of vimentin in treated cells. Each sample analyzed by flow cytometry consisted of at least 30,000 events.
# MDA-MB-231 cells = test: Anti-invasion activity, real-time monitoring (xCELLigence RTCA CIM plate); settings: cells treated with IC50,72h for 24 h before seeding; monitored 7 days; untreated control 21 h
# Experimental: The anti-invasive effects of the investigated Ir complexes in real time were assessed by the xCELLigence DP instrument with the migration RTCA CIM plate 16.[48] This system is based on the principle of the Boyden chamber that allows real-time monitoring of the number of invading cells. When cells migrate from the upper to lower wells through the microporous membrane with integrated microelectrodes, they contact and adhere to the microelectrodes affecting the impedance. The output of the experiment performed with this system is the dimensionless cell index (CI); when the cells invade, the CI increases. Moreover, it is possible to analyze the time from cell seeding to the time when invasion through the membrane matrix for each sample treated with tested compounds started (tinv). This period is determined by the intersection of the curve corresponding to the particular time-dependent cell response profile (TCRP) with the straight line corresponding to the threshold value (CI = 0). […] The invasion process was monitored for 7 days to determine whether cell death occurred during the subsequent time after the invasion was observed.
# Anti-invasion activity was monitored by the xCELLigence system (Roche). […] Samples were continuously monitored every 5 min for an additional 7 days. […]
# MDA-MB-231 VIM RFP cells [2] = test: Wound healing assay
# Experimental: MDA-MB-231 VIM RFP cells were seeded on 35 mm confocal Petri dishes (Mattek) at the density of 3 × 10^5 cells/dish and incubated overnight or for a further 24–48 h to reach approximately 70% confluency. Defined scratch (220 μm width) was done under continuous suction with the pipette tip. Cells were washed, and the medium was replaced with the culture medium supplemented with tested compounds, applied at the equitoxic concentration (IC50,72h). Samples were incubated for an additional 24 h before fixation with 3.7% formaldehyde (10 min, RT) and mounted with ProLong Diamond Antifade Mountant (LifeSciences, Thermo Fisher Scientific). Samples were visualized with a confocal microscope Leica SP8 SMD operated under the deconvolution lightning mode. Images were analyzed by using ImageJ software. The scratch boundaries were identified with the MRI wound healing tool ImageJ plugin or identified manually.
# [3] = system: spheroids generated from MDA-MB-231 cells; test: Morphological quantification of 3D tumor spheroids and cell-invasive potential; settings: for protrusion occurrence (length): control 32 μm
# From the text: The cancer cell transition from proliferation to invasion is usually initiated by nutrient stress and unfavorable conditions caused by the progressive growth of the primary tumor.[63] To study the dynamics of cells to evade the primary tumor, we monitored the morphology of spheroids generated from MDA-MB-231 cells embedded in an agar matrix.[64] Multicellular tumor spheroids represent the most used 3D in vitro model[65] and offer the opportunity to study the invasive potential of cancer cells under conditions much closer to the in vivo situation than when the traditional Transwell assay is used.[64] Morphological parameters were utilized to evaluate the invasive potential of spheroids generated from MDA-MB-231 cells.[66] Spheroid perimeter is the most useful morphological parameter for quantifying overall proliferation, whereas roundness, shape integrity, and quantification of protrusion occurrence are the morphological parameters related to the invasion potential.[64],[66] At the most compact stage, cells on the surface follow the contour of the spheroid. This morphology resembles the proliferating but not invading character of the spheroid, whereas diffuse and rough borders are the signs of the invasive character of peripheral cells. Assessment of the spheroid circularity (roundness) was analyzed by the automated edge detection and measurement of the enclosed area. A circularity equal to one indicates a perfectly circular spheroid, whereas lower values indicate a loss of circularity. The solidity is an indicator of the regularity of the spheroids’ surface or its roughness and thus can be considered the indicator of the primary protrusions and the overall regularity of the spheroid.[66]
# MDA-MB-231 cells were seeded in a sandwich agar matrix (0.5% bottom gel and 0.35% upper cell-containing gel). First, wells of 24-well plates were covered with 0.5% agar gel, and then MDA-MB-231 cells were resuspended in 0.35% agar matrix. The detailed protocol was as follows: Stock solution of agar gel was prepared by autoclaving 1 g of agar in 100 mL of PBS for at least a 20 min liquid cycle. Twenty-four-well plates were covered with 1 mL of 0.5% agar created by mixing 1% agar solution with cultivation media in 1:1 ratio. The dish was then layered with 1 mL of 0.35% agar composed of 0.35 mL of 1% agar and 0.65 mL of cultivation media containing 10^5 MDA-MB-231 cells. After gel solidification, the dish was covered with 2 mL of cultivation media. Mixing of agar solution and media was carried out after the agar solution cooled to approximately 40 °C to prevent damage by high temperature. Cells were cultured for an additional 7 days to establish spheroid structures, then treated with tested compounds at the equitoxic concentration corresponding to IC50,72h, and cultured for an additional 72 h. Samples were photographed on a phase contrast microscope (Olympus CKX41), and images were processed and analyzed for morphology parameters in ImageJ software.
# MDA-MB-231 VIM RFP cells [4] = test: Morphology of the vimentin intermediate filament network by confocal microscopy; settings: 24 h, IC50,72h
# Experimental: MDA-MB-231 VIM RFP cells were seeded on 35 mm confocal Petri dishes (Mattek) at the density of 2.5 × 10^5 cells per dish and incubated overnight. […] Then, samples were washed with PBS, fixed with 3.7% formaldehyde (10 min, RT), and mounted with ProLong Diamond Antifade Mountant with DAPI. Samples were visualized with a confocal microscope Leica SP8 SMD operated under the deconvolution lightning mode.
# E-Cadherin = test: RT-qPCR of EMT-related gene transcripts; settings: MDA-MB-231, 24 h, IC50,72h
# Experimental: (§1) MDA-MB-231 cells were seeded on a six-well plate at the density of 0.5 × 10^6 cells per well and incubated overnight. […] Cells were harvested, and total RNA was isolated using NucleoSpin RNA columns (Machery Nagel, GE). One-step qPCR combining reverse transcription followed by amplification thermal cycling was applied using a Luna Universal One-Step RT-qPCR (New England BioLabs, MA, USA). Experiments were performed on an Illumina Eco Real-Time PCR (Illumina, CA, USA). The thermal profile was as follows: reverse transcription for 10 min at 55 °C and initial denaturation for 1 min at 95 °C, followed by 43 thermal cycles of denaturation for 10 s at 95 °C and extension for 30 s at 60 °C. Primer sequences were as follows: Β-actin-F: […]; Β-actin-R: […]; Vim-F: […]; Vim-R: […]; E-Cadherin-F: […]; E-Cadherin-R: […]; N-Cadherin-F: […]; N-Cadherin-R: […]; B-Catenin-F: […]; B-Catenin-R: […]; SNAI1-F: […]; SNAI1-R: […]. Purified primers were from Generi Biotech (Czech Republic). All runs included melting curve analysis and template-free negative technical controls to confirm specific single-product amplification. Β-actin was used as an internal control. The relative expression of mRNA is represented as a fold increase (2^–ΔΔCt).[69]
# SNAI1 = test: RT-qPCR of EMT-related gene transcripts; settings: MDA-MB-231, 24 h, IC50,72h
# Experimental: as §1
# B-catenin = test: RT-qPCR of EMT-related gene transcripts; settings: MDA-MB-231, 24 h, IC50,72h
# Experimental: as §1
# N-Cadherin = test: RT-qPCR of EMT-related gene transcripts; settings: MDA-MB-231, 24 h, IC50,72h
# Experimental: as §1
# Vimentin = test: RT-qPCR of EMT-related gene transcripts; settings: MDA-MB-231, 24 h, IC50,72h
# Experimental: as §1
# MCF-10A cells = test: Antiproliferative activity, sulforhodamine B (SRB) assay, non-malignant cells
# Experimental: The antiproliferative activity of the investigated compounds was evaluated using the SRB assay. The cells were seeded in 96-well tissue culture plates at a density of 3 × 10^3 cells/well in 100 μL of the medium. After overnight incubation in a humidified CO2 incubator, the cells were treated with the tested compounds in a final volume of 200 μL/well. After an additional 72 h, cells were washed with PBS and fixed for 1 h at 4 °C with trichloroacetic acid. Then, the cells were stained with 0.4% SRB dye for 30 min. Stained cells were dissolved with Tris (10 mM). The cell viability was evaluated by measurement of the absorbance at 570 nm using an absorbance reader (SPARK TECAN, SCHOELLER). The reading values were converted to the percentage of control (% cell survival). Antiproliferative effects were expressed as IC50 values calculated from curves constructed by plotting cell survival (%) versus drug concentration (μM) (IC50 = concentration of the agent inhibiting cell growth by 50%). Concentrations of compounds present in the medium during the treatment were verified by FAAS or ICP-MS.
# [5] = one week-old spheroids, 72 h treatment at IC50,72h
# [6] = β-actin reference, untreated control as calibrator
smiles,measurement,setting,value
"COc1cccc2c1C(=O)c1c(O)c3c(c(O)c1C2=O)C[C@@](O)(C(=O)CO)C[C@@H]3O[C@H]1C[C@H](N)[C@H](O)[C@H](C)O1 [Dox, doxorubicin]",RFP fluorescence of VIM RFP reporter,"[1]; 2-fold IC50,72h",somewhat suppressed the RFP fluorescence
same,vimentin expression,[1]; sub-toxic concentrations,considerably increased vimentin expression
same,"tinv, period needed to invade through the matrix membrane",MDA-MB-231 cells,approximately 35 h
same,wound healing assay observation,"MDA-MB-231 VIM RFP cells [2]; 24 h, IC50,72h",induced formation of the pseudopods
same,wound closure capacity,"MDA-MB-231 VIM RFP cells [2]; 24 h after treatment with IC50,72h, untreated control 70%",67%
same,mean perimeter of spheroids,"[3]; 72 h treatment at IC50,72h, control 2.1 mm",about 2.8 mm
same,solidity,"[3]; one week-old spheroids, 72 h at IC50,72h, control 3.0, Ir1 value affected by collapse of the spheroid structure",6.3
same,secondary protrusions (SP),[3]; [5],secondary protrusions were identified
same,circularity,"[3]; one week-old spheroids, 72 h treatment at IC50,72h, control 0.96",0.66
same,protrusion occurrence (number),"[3]; one week-old spheroids, 72 h treatment at IC50,72h, control 4",2
same,protrusion occurrence (length),[3]; [5],73 μm
same,protrusion occurrence (length),"[3]; one week-old spheroids, 72 h treatment at IC50,72h, listed as doxorubicin",up to 73 μm
same,perimeter,"[3]; one week-old spheroids, 72 h treatment at IC50,72h, control 2120 ± 310",2820 ± 506 μm
same,morphology of vimentin intermediate filaments,MDA-MB-231 VIM RFP cells [4],adopted a typical structure
same,effect on expression of E-cadherin,E-Cadherin,the expression of E-cadherin slightly decreased
same,relative mRNA expression E-Cadherin (2^–ΔΔCt),E-Cadherin; [6],0.73
same,upregulation of expression of SNAI1,SNAI1,~2 fold
same,relative mRNA expression SNAI1 (2^–ΔΔCt),SNAI1; [6],1.63
same,upregulation of expression of β-catenin,B-catenin,~3 fold
same,relative mRNA expression B-catenin (2^–ΔΔCt),B-catenin; [6],2.86
same,upregulation of expression of N-cadherin,N-Cadherin,~3 fold
same,relative mRNA expression N-Cadherin (2^–ΔΔCt),N-Cadherin; [6],3.39
same,effect on expression of vimentin,Vimentin,slightly upregulated also the expression of vimentin
same,relative mRNA expression Vimentin (2^–ΔΔCt),Vimentin; [6],1.21
same,IC50,"MCF-10A cells; Homo sapiens, MCF-10A, SRB assay, 72 h incubation, mean ± SD, non-cancerous cells",8.6 ± 0.8 µM
same,"SI, average selectivity index",MCF-10A cells; IC50 (MCF-10A)/average IC50 (MDA-MB-231 and MCF-7),~18
